Data from BindingDB's records for doi:10.3109/14756366.2012.677838 (Inonu University, 2013).

Columns and labels:
[1] = molecular target: Carbonic anhydrase 1 (Homo sapiens, UniProt P00915); experiment: CA Enzyme Assay; settings: pH 10
Procedure: (§1) CA activity was measured by the Maren method which is based on determination of the time required for the pH to decrease from 10.0 to 7.4 due to CO2 hydration [Maren et al., J. Pharm. Exp. Ther., 130:2629-2634]. The assay solution was 0.5 M Na2CO3/0.1 M NaHCO3 (pH 10.0) and Phenol Red was added as the pH indicator.

[2] = molecular target: Carbonic anhydrase 2 (Homo sapiens, UniProt P00918); experiment: CA Enzyme Assay; settings: pH 10
Procedure: as §1

Chain of Carbonic anhydrase 1 (P00915 whole entry): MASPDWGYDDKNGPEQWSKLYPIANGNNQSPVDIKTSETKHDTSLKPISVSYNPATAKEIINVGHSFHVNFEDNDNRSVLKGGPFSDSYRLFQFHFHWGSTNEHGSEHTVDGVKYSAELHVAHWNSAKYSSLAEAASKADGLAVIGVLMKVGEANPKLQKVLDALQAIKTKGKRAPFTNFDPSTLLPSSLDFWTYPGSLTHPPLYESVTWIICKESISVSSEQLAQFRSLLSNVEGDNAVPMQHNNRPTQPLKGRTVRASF

IC50 [1] [µM]	IC50 [2] [µM]	SMILES
48.1	29.7	C=CCN1CN(Cc2cc(=O)oc3c(O)c(O)ccc23)c2ccccc21 [1-Allyl-3-(4-methyl-7,8-dihydroxy-2H-chromen-2-one)benzimidazolium chloride (3c)]
32.9	33.2	CCOCCN1CN(Cc2cc(=O)oc3c(O)c(O)ccc23)c2ccccc21 [1-(2-Ethoxyethyl)-3-(4-methyl-7,8-dihydroxy-2H-chromen-2-one)benzimidazolium chloride (3e)]
32.6	41.4	COCCN1CN(Cc2cc(=O)oc3c(O)c(O)ccc23)c2ccccc21 [1-(2-Methoxyethyl)-3-(4-methyl-7,8-dihydroxy-2H-chromen-2-one)benzimidazolium chloride (3d)]
22.1	28.9	Cc1cccc(CN2CN(Cc3cc(=O)oc4c(O)c(O)ccc34)c3ccccc32)c1 [1-(3-Methylbenzyl)-3-(4-methyl-7,8-dihydroxy-2H-chromen-2-one)benzimidazolium chloride (3g)]
